According to paper PMC5149398 (Journal of medicinal chemistry, 2016):

What was measured:
AKR1C3 [1] = target: T1, AKR1C3 (Homo sapiens, UniProt P42330); assay: S-tetralol oxidation assay, AKR1C3; type: biochemical
T1 sequence (P42330 1-323): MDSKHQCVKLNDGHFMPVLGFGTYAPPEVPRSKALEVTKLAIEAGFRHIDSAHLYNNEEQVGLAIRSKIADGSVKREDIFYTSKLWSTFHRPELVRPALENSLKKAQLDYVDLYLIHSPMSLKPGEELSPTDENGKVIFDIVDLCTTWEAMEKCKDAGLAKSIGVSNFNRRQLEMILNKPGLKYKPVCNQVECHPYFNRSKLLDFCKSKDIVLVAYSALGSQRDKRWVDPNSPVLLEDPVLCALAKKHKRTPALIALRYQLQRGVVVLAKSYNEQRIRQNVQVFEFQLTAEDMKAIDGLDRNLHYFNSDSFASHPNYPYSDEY

AKR1C3 [2] = target: T1, AKR1C3; assay: AKR1C3 catalyzed NADPH dependent reduction of [3H]-Δ4-AD; type: biochemical
AKR1C3 [3] = target: T1, AKR1C3; assay: Radiometric assay of androgen metabolism; type: cell-based; details: LNCaP-AKR1C3 cells, 100 nM Δ4-AD, 30 µM compound, 48 h
[4] = test system: PSA expression in LNCaP-AKR1C3 cells; assay: Δ4-AD induced PSA expression in LNCaP-AKR1C3 cells; type: cell-based; details: 100 nM Δ4-AD, 30 µM compound, 24 h
AKR1C2 = target: T2, AKR1C2 (Homo sapiens, UniProt P52895); details: 5α-DHT reduction, <100 µM concentrations
T2 sequence (P52895 1-323): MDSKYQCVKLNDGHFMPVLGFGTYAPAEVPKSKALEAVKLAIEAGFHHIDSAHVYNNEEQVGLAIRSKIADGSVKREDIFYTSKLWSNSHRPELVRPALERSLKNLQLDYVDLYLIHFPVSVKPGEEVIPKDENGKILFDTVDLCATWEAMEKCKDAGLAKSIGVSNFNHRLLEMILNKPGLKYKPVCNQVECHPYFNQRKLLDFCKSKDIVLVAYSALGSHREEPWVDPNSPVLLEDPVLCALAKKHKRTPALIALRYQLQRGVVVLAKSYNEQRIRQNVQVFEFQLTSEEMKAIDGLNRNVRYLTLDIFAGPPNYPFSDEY

COX-2 = details: no COX-2 method in this paper, ref Duggan et al.[42], cited from earlier work

## CSc1ccc2cc(C(C)C(=O)O)ccc2c1 (racemic) [(±)-9, 2-(6-(Methylthio)naphthalen-2-yl)propanoic Acid]
AKR1C3 [1]; S-tetralol oxidation
  increase in the inhibitory potency for AKR1C3 over that seen with naproxen: 3 fold

## CC(C(=O)O)c1ccc2cc([S+](C)[O-])ccc2c1 (racemic) [(±)-10, 2-(6-(Methylsulfinyl)naphthalen-2-yl)propanoic Acid]
AKR1C3 [1]; S-tetralol oxidation
  loss of inhibitory potency on AKR1C3 compared to 9: greater than 15 fold

## CC(C(=O)O)c1ccc2cc(S(C)(=O)=O)ccc2c1 (racemic) [(±)-11, 2-(6-(Methylsulfonyl)naphthalen-2-yl)propanoic Acid]
AKR1C3 [1]; S-tetralol oxidation
  loss of inhibitory potency on AKR1C3 compared to 9: greater than 15 fold

## CC[C@@H](C(=O)O)c1ccc2cc(OC)ccc2c1 [(R)-14a, (R)-2-(6-methoxynaphthalen-2-yl)butanoic acid]
AKR1C3 [1]; oxidation of S-tetralol
  mode of AKR1C3 inhibition: competitively inhibited
AKR1C3 [2]
  mode of AKR1C3 inhibition: same mode of inhibition
AKR1C3 [3]
  production of [3H]-testosterone glucuronide: significantly inhibited
[4]
  Δ4-AD induced increase in PSA expression: reduced
AKR1C2
  inhibition of AKR1C2: did not display any significant inhibition
COX-2
  COX-2 IC50 (µM): no inhibition ^a

## CC[C@H](C(=O)O)c1ccc2cc(OC)ccc2c1 [(S)-14b]
COX-2
  COX-2 IC50 (µM): no inhibition ^a

## COc1ccc2cc([C@@H](C)C(=O)O)ccc2c1 [R-naproxen (1a), reference compound]
COX-2; read-out: COX-2 IC50
  IC50: > 25 µM
